Assay results reported in US8377983B2, “Benzazole derivatives, compositions, and methods of use as aurora kinase inhibitors” (TransTech Pharma, Inc., priority 2006, dated 2013).

Tests used:
[1] = system: human tumor xenografts derived from pancreas and breast tissues; assay: Single agent antitumor activity in established human tumor xenografts; format: in vivo; conditions: established human tumor xenografts in athymic mice
Source text: While the compounds of the present invention may be used as a single agent, they may also be used as part of a combination therapy.

[2] = system: human MiaPaCa-2 pancreatic xenografts; assay: MiaPaCa-2 xenograft model, Example 88 alone and in combination with gemcitabine; format: in vivo, athymic mice; conditions: for Median Tumor Size: Example 88 10 mg/kg i.p. b.i.d. 10 days, gemcitabine 120 mg/kg i.p. q3d×4
Method: (§1) Compounds were dosed on the following schedules:
2) Gemcitabine was dosed 120 mg/kg, i.p., q3d×4 (days 1, 4, 7, 10).
Drug treatment started when mean tumor sizes reached approximately 120 mg (day 8). Mice-bearing sc tumors were randomized, and treatment groups consisted of 8 mice. The median tumor size for each group at various points in the study are listed below in Table B.

BT-474 breast xenograft = assay: BT-474 xenograft model, Example 88 alone and in combination with trastuzumab; format: in vivo, athymic SCID mice; conditions: for Median Tumor Size: Example 88 30 mg/kg i.p. b.i.d. 3 days on, 2 days off, 5 cycles, trastuzumab 10 mg/kg i.p. twice weekly 4 weeks
Source text: Mice-bearing sc tumors were randomized, and treatment groups consisted of 10 mice.

[3] = system: human MiaPaCa-2 pancreatic xenografts; assay: MiaPaCa-2 xenograft model, Example 88 alone and in combination with erlotinib; format: in vivo, athymic mice; conditions: for Median Tumor Size: Example 88 10 mg/kg i.p. b.i.d. 10 days, erlotinib 50 mg/kg p.o. daily 14 days
Method: as §1
2) Erlotinib was dosed 50 mg/kg, p.o., daily for 14 days (days 1-14).
Mice-bearing sc tumors were randomized, and treatment groups consisted of 8 mice.

[4] = day 8 of study (treatment start)
[5] = day 42, out of 8 mice, Example 88 10 mg/kg, gemcitabine 120 mg/kg
[6] = previous dose response studies in this model, 10 mg/kg
[7] = day 24, out of 10 mice, Table CC head: Example 88 10 mg/kg, Trastuzumab 10 mg/kg

SMILES: O=C(Nc1ccc2cn[nH]c2c1)c1cc2nc(Nc3ccccc3C(F)(F)F)[nH]c2cc1N1CCNCC1 [Example 88, 6-Piperazin-1-yl-2-(2-trifluoromethylphenylamino)-1H-benzimidazole-5-carboxylic acid (1H-indazol-6-yl)-amide]
- antitumor activity as a single agent [1]: demonstrated antitumor activity
- Median Tumor Size [2, 4]: 120 mg
- Median Tumor Size ([2]; day 10 of study): 162 mg
- Median Tumor Size ([2]; day 13 of study): 170 mg
- Median Tumor Size ([2]; day 16 of study): 170 mg
- Median Tumor Size ([2]; day 20 of study): 221 mg
- Median Tumor Size ([2]; day 23 of study): 209 mg
- Median Tumor Size ([2]; day 27 of study): 368 mg
- Median Tumor Size ([2]; day 30 of study): 486 mg
- Median Tumor Size ([2]; day 34 of study): 817 mg
- Median Tumor Size ([2]; day 37 of study): 1055 mg
- complete responders (CR, 100% reduction in tumor size) [2, 5]: 0/8
- partial responders (PR, greater than 50% reduction in tumor size) [2, 5]: 0/8
- Median Tumor Size ([2]; day 42 of study): 1629 mg
- effectiveness of dose for inhibition of tumor growth [2, 6]: moderately effective dose
- Median Tumor Size (BT-474 breast xenograft; day 4 of study): 120 mg
- Median Tumor Size (BT-474 breast xenograft; day 7 of study): 152 mg
- Median Tumor Size (BT-474 breast xenograft; day 10 of study): 153 mg
- Median Tumor Size (BT-474 breast xenograft; day 14 of study): 179 mg
- Median Tumor Size (BT-474 breast xenograft; day 17 of study): 149 mg
- Median Tumor Size (BT-474 breast xenograft; day 21 of study): 142 mg
- complete responders (CR) (BT-474 breast xenograft; [7]): 0/10
- partial responders (PR) (BT-474 breast xenograft; [7]): 0/10
- Median Tumor Size (BT-474 breast xenograft; day 24 of study): 138 mg
- Median Tumor Size (BT-474 breast xenograft; day 28 of study): 104 mg
- Median Tumor Size [3, 4]: 120 mg
- Median Tumor Size ([3]; day 10 of study): 162 mg
- Median Tumor Size ([3]; day 13 of study): 170 mg
- Median Tumor Size ([3]; day 16 of study): 170 mg
- Median Tumor Size ([3]; day 20 of study): 221 mg
- Median Tumor Size ([3]; day 23 of study): 209 mg
- Median Tumor Size ([3]; day 27 of study): 368 mg
- Median Tumor Size ([3]; day 30 of study): 486 mg
- Median Tumor Size ([3]; day 34 of study): 817 mg
- Median Tumor Size ([3]; day 37 of study): 1055 mg
- Median Tumor Size ([3]; day 42 of study): 1629 mg
- effectiveness of dose for inhibition of tumor growth [3, 6]: moderately effective dose
